Test results taken from US20070238756A1, “COMBINATIONS OF DIPEPTIDYL PEPTIDASE IV INHIBITORS AND OTHER ANTIDIABETIC AGENTS FOR THE TREATMENT OF DIABETES MELLITUS” (priority 2000, published 2007).

Legend:
male ZDF fa/fa rats [1] = test: Glucose tolerance test, plasma glucose 30 min after intraperitoneal glucose, in ZDF rats; format: in vivo, rat; details: oral gavage BID for 7 days, i.p. glucose 30 min after last dose, blood 30 min after glucose, Compound (I) 5 mg/kg, Compound (II) 100 mg/kg, combination of both doses, n=6, control 695 ± 24
Procedure: For glucose tolerance measurements, rats were treated with test compound for 7 days and given an intraperitoneal injection of a glucose solution in saline 30 minutes after the last dose of test compound.
(§1) Rats were anesthetized with isofluorane for cardiac blood collection 30 minutes after administration of the glucose solution. Serum chemistry measurements were obtained using an automated chemistry analyzer (ILab600, Instrument Laboratory, Lexington, Mass.).

male ZDF fa/fa rats [2] = test: % HbA1C 7 day change in ZDF rats; format: in vivo, rat; details: oral gavage BID for 7 days, Compound (I) 5 mg/kg, Compound (II) 100 mg/kg, combination of both doses, n=6, control 1.63 ± 1.12
Procedure: Age and weight matched male ZDF fa/fa rats (Genetic Models, Inc., Indianapolis, Ind.) were housed individually at 72° F. and 50% relative humidity with a 12 h light/dark cycle and fed PMI 5008 Formulab Diet (PMI Nutrition International, Saint Louis, Mo.).
as §1
Results from each group (n=6) were averaged and compared to vehicle treated rats to determine significance and are shown in Table I.

DPP-IV = target: T1, DPP-IV (Rattus norvegicus, UniProt P14740); test: Plasma DPP-IV activity in treated ZDF rats (Gly-Pro-AMC fluorogenic substrate); format: in vivo; details: male ZDF fa/fa rats, oral gavage BID for 7 days; Compound (I) 5 mg/kg, Compound (II) 100 mg/kg, combination of both doses; n=6; control 5544 ± 485
T1 construct: from tissue; host or cells: plasma of treated male ZDF fa/fa rats
T1 sequence (P14740 37-767 limits assumed): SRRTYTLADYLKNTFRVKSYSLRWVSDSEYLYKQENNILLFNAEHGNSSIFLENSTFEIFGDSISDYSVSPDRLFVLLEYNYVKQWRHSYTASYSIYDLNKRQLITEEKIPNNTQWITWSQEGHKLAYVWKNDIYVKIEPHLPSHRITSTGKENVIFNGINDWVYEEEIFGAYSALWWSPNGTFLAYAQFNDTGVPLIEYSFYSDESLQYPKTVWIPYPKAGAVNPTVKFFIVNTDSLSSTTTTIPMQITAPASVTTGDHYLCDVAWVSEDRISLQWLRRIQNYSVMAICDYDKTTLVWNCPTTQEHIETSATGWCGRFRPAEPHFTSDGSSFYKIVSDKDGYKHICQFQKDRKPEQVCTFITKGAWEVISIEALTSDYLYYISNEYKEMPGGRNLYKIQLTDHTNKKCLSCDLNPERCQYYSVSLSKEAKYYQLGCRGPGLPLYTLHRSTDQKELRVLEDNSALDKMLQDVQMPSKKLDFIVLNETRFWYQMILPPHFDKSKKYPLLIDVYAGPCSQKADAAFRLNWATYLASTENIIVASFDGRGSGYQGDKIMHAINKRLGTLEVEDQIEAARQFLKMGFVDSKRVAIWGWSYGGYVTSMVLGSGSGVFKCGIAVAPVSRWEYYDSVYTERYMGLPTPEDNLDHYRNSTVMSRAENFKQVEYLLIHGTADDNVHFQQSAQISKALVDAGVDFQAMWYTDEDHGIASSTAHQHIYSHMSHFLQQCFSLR
Procedure: DPP-IV activity was measured using the fluorogenic substrate Gly-Pro-AMC ([…]) according to the manufacturer's specification (Enzyme System Products, Livermore Calif.). The substrate was mixed with 50 mM Tris, pH 7.8, in plasma (20% final v/v) and the samples were incubated for 5-20 min at 30 °C. DPP-IV activity was determined by measuring fluorescence using a cytofluor spectrofluoremeter with the filters set at 360 nm excitation and 460 nm emission.

Row | Compound | Plasma Glucose (30 min GTT) (male ZDF fa/fa rats [1]) | % HbA1C (7 day change) (male ZDF fa/fa rats [2]) [%] | Plasma DPP-IV activity (DPP-IV)
1 | CN(CCOc1ccc(CC2SC(=O)NC2=O)cc1)c1ccccn1 (centres unmarked) [Compound (I), 5-[4-[2-(N-methyl-N-(2-pyridyl)amino)ethoxy]benzyl]thiazolidine-2,4-dione] | 665 ± 40 | 0.79 ± 0.54 | 4104 ± 399
2 | CC[C@H](C)[C@H](N)C(=O)N1CCSC1 [Compound (II), isoleucine thiazolidide] | 684 ± 60 | 1.81 ± 1.24 | 
